The source of these data is patent US20250228835A1, “PYRIDINYLOXYPYRIDINES AND RELATED COMPOUNDS AND THEIR USE IN TREATING MEDICAL CONDITIONS” (Rectify Pharmaceuticals, Inc., priority 2024, published 2025).

Structures are written as SMILES.

One test concerns the target T1, ABCD2 WT (Homo sapiens, UniProt Q9UBJ2).
T1 construct: expressed in transfected cells
T1 sequence (Q9UBJ2 1-740): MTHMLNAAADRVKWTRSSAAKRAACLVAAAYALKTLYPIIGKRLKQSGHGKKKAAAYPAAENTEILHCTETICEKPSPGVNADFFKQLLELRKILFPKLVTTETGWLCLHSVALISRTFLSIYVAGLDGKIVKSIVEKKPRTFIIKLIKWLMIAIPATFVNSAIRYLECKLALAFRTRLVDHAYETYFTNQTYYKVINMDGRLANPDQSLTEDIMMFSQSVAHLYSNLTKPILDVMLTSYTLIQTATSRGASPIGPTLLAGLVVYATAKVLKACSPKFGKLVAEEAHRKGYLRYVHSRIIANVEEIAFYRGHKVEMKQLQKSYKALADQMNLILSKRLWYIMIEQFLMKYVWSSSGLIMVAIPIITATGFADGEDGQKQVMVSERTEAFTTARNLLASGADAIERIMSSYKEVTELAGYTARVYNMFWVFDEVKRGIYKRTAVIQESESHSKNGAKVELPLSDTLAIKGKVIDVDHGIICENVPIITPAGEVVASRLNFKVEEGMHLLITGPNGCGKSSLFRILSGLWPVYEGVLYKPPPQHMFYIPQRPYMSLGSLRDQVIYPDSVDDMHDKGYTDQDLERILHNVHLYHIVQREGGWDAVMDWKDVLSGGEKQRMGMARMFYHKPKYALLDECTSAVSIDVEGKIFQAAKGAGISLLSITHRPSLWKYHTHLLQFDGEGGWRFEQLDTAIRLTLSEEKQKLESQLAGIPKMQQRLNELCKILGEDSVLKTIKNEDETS
Put plainly: D2 correction dose-response assay: ABCD2 WT HiBit protein expression. To be noted: HEK-293/ABCD2 WT cells, 24 hours treatment, HiBit luminescence; class combines EC50 and Mean MaxAct (fold); read-out: ABCD2 WT EC50, Emax. It counts as cell-based. An outline of the steps: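 HEK-293 cells stably expressing HiBit-tagged human ABCD2 WT were treated with 11 doses (3-fold dilutions, top final 30 μM, 0.3% DMSO) for 24 h at 37 °C. Expression was measured by HiBit lytic luminescence after 1 h at 25 °C, giving EC50 and Emax.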

A further test has as its target T2, ABCB4 WT (Homo sapiens, UniProt P21439).
T2 construct: expressed in transfected cells
Put plainly: ABCB4 WT assay: HiBit protein expression. The class given is cell-based. The conditions noted are these: HEK-293 cells stably expressing HiBit-tagged ABCB4 WT; 24 h treatment; top concentration 30 μM; read-out: ABCB4 WT EC50, Emax. An outline of the steps: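 HEK-293 cells stably expressing HiBit-tagged human ABCB4 WT, treated 24 h at 37 °C with 11-dose 3-fold dilutions, top final 30 μM in 0.3% DMSO. HiBit lytic reagent luminescence read after 1 h at 25 °C; Emax and EC50 derived.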
Background: With HiBiT, luminescence reflects the tagged protein that the partner subunit can reach.

The term EC50 denotes the concentration needed to bring the measured effect to its halfway point.

T2 sequence (P21439 whole entry): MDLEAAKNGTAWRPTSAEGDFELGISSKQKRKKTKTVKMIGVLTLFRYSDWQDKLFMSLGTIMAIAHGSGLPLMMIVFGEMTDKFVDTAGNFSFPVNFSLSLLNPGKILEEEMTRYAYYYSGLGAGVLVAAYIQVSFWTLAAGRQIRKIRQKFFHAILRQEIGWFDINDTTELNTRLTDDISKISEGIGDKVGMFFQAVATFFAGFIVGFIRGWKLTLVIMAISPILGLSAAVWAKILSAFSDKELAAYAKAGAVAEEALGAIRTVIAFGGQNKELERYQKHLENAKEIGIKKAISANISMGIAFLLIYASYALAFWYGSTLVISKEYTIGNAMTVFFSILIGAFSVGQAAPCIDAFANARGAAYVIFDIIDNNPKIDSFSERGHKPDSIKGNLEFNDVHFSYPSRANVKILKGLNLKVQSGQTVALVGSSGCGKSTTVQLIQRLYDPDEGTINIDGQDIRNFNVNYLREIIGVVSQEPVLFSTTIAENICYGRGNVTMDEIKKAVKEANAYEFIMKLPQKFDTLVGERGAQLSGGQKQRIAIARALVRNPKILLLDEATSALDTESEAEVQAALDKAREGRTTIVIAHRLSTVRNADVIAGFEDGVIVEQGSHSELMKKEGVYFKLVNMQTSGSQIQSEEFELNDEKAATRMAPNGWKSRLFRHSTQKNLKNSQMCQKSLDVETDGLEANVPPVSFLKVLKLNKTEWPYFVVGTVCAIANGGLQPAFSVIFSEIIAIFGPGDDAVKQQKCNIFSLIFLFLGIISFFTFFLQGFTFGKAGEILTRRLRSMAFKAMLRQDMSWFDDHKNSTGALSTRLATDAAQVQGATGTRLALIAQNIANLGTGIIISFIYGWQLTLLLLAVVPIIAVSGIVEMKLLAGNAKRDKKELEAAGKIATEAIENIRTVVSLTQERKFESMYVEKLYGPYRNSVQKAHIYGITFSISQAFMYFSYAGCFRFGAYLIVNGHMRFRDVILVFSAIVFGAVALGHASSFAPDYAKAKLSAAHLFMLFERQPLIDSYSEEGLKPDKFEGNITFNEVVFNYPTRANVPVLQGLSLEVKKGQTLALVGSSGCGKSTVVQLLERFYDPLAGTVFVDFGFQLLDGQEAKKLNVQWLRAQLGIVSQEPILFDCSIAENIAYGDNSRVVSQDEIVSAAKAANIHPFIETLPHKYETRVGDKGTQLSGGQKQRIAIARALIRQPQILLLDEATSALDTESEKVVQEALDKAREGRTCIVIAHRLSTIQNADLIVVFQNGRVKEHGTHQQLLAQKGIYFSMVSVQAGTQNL

For `Cc1cc(C)c(Oc2nc(-n3cc(C)cn3)ccc2NS(C)(=O)=O)c(C)c1` [Compound I-11], the EC50 at ABCD2 WT was 1 to 10 µM; on ABCB4 WT, at least 25 µM.
The like results for `Cc1cc(C)c(Oc2nc(-n3cnc(C)c3)ccc2NS(C)(=O)=O)c(C)c1` [Compound I-12] were, in that order, under 1 µM and under 25 µM.
Turning to `Cc1cc(C)c(Oc2nc(-c3cnn(C)c3C)ccc2NS(C)(=O)=O)c(C)c1` [Compound I-13], the results for the 50% effective concentration (EC50) on ABCD2 WT and at ABCB4 WT were over 25 µM and 1 to 10 µM, respectively.
The like results for `Cc1cc(C)c(Oc2nc(-c3cnn(C)c3)ccc2NS(C)(=O)=O)c(C)c1` [Compound I-14] were, in that order, 1 to 10 µM and at least 25 µM.
Turning to `Cc1cc(C)c(Oc2nc(N3CCN(C(=O)C4(C)CC4)CC3)ccc2NS(C)(=O)=O)c(C)c1` [Compound I-15], the values for the EC50 at ABCD2 WT and on ABCB4 WT were over 25 µM and 1 to 10 µM, respectively.
On to `COC(=O)N1CCN(c2ccc(NS(C)(=O)=O)c(Oc3c(C)cc(C)cc3C)n2)CC1` [Compound I-16], for which the EC50 at ABCD2 WT was 10 to 25 µM; on ABCB4 WT, at least 25 µM.
The like results for `CC(=O)N1CCN(c2ccc(NS(C)(=O)=O)c(Oc3c(C)cc(C)cc3C)n2)CC1` [Compound I-17] were, in that order, 1 to 10 µM and at least 25 µM.
`Cc1nc(Oc2nc(-c3cncc(C#N)c3)ccc2NS(C)(=O)=O)c(C)s1` [Compound I-107]: the EC50 was under 1 µM on ABCD2 WT and at least 25 µM at ABCB4 WT.
For `Cc1cc(Oc2nc(-c3cncc(C#N)c3)ccc2NS(C)(=O)=O)nn1C` [Compound I-113], in that order: under 25 µM and under 25 µM.
For `Cc1nn(C)c(C)c1Oc1nc(-c2cncc(C#N)c2)ccc1NS(C)(=O)=O` [Compound I-115], in that order: under 1 µM and under 1 µM.
The like results for `Cc1cc(C)c(Oc2nc(-c3cncc(S(C)(=N)=O)c3)ccc2NS(C)(=O)=O)c(C)n1` (centres unmarked) [Compound I-116] were, in that order, over 25 µM and at least 25 µM.
Regarding `Cc1nc(C2CC2)c(Cl)cc1Oc1nc(-c2cncc(C#N)c2)ccc1NS(C)(=O)=O` [Compound I-120], the results for the EC50 at ABCD2 WT and on ABCB4 WT were 1 to 10 µM and under 25 µM, respectively.
Regarding `Cc1cc(Oc2nc(-c3cncc(C#N)c3)ccc2NS(C)(=O)=O)c(C)nc1C1CC1` [Compound I-127], the figures for the EC50 at ABCD2 WT and at ABCB4 WT were over 25 µM and under 1 µM, respectively.
For `Cc1cc(OC(F)(F)F)nc(C)c1Oc1nc(-c2cncc(C#N)c2)ccc1NS(C)(=O)=O` [Compound I-131], in that order: under 1 µM and under 1 µM.
For `Cc1cc(OC2CC2)nc(C)c1Oc1nc(-c2cncc(C#N)c2)ccc1NS(C)(=O)=O` [Compound I-132], in that order: under 1 µM and under 1 µM.
The like results for `Cc1nc(C)c(Oc2nc(-c3cncc(C#N)c3)ccc2NS(C)(=O)=O)c(C2CC2)n1` [Compound I-165] were, in that order, 1 to 10 µM and 1 to 10 µM.
Turning to `Cc1cc(C)c(Oc2nc(-c3cncc(C#N)c3)ccc2N(C)S(C)(=O)=O)c(C)n1` [Compound I-166], the EC50 on ABCD2 WT and on ABCB4 WT was 1 to 10 µM in each case.
As to `CNS(=O)(=O)c1ccc(-c2cncc(C#N)c2)nc1Oc1c(C)nc(C(F)(F)F)nc1C` [Compound I-167], the EC50 on ABCD2 WT and at ABCB4 WT was 1 to 10 µM each time.
On to `CNS(=O)(=O)c1ccc(-c2cncc(C#N)c2)nc1Oc1c(C)cc(C(F)(F)F)nc1C` [Compound I-168], for which the EC50 at ABCD2 WT and on ABCB4 WT was 1 to 10 µM throughout.
As for `Cc1nc(N2CC(S(C)(=O)=O)C2)nc(C)c1Oc1nc(-c2cncc(C#N)c2)ccc1NS(C)(=O)=O` [Compound I-169], the values for the EC50 at ABCD2 WT and at ABCB4 WT were 10 to 25 µM and 1 to 10 µM, respectively.
For `Cc1nc(N2CC(F)(F)C2)nc(C)c1Oc1nc(-c2cncc(C#N)c2)ccc1NS(C)(=O)=O` [Compound I-170], in that order: 1 to 10 µM and under 1 µM.
The like results for `Cc1cc(C2CC2)c(Oc2nc(-c3cncc(C#N)c3)ccc2NS(C)(=O)=O)c(C)n1` [Compound I-171] were, in that order, under 1 µM and under 1 µM.
`Cc1cc(C)c(Oc2nc(-c3cncc(C#N)c3)ccc2NS(=O)(=O)C2(C)CC2)c(C)n1` [Compound I-172]: the EC50 is over 25 µM on ABCD2 WT and under 1 µM on ABCB4 WT.
The like results for `Cc1nc(C(F)F)nc(C)c1Oc1nc(-c2cncc(C#N)c2)ccc1NS(C)(=O)=O` [Compound I-173] were, in that order, under 1 µM and under 1 µM.
For `Cc1nc(C2COC2)nc(C)c1Oc1nc(-c2cncc(C#N)c2)ccc1NS(C)(=O)=O` [Compound I-174], in that order: 1 to 10 µM and at least 25 µM.
For `Cc1nc(C(F)F)nc(C)c1Oc1nc(-c2cncc(Cl)c2)ccc1NS(C)(=O)=O` [Compound I-175], in that order: over 25 µM and under 1 µM.
In the case of `Cc1cc(C)c(Oc2nc(-c3cncc(C#N)c3)ccc2NS(C)(=O)=O)c(OC2CC2)n1` [Compound I-176], the EC50 on ABCD2 WT and at ABCB4 WT was under 1 µM in each case.
On to `Cc1cc(N2CCC2)nc(C)c1Oc1nc(-c2cncc(C#N)c2)ccc1NS(C)(=O)=O` [Compound I-177], for which the EC50 is over 25 µM at ABCD2 WT and under 1 µM at ABCB4 WT.
The like results for `Cc1nc(OC2CC2)c(C(F)(F)F)cc1Oc1nc(-c2cncc(C#N)c2)ccc1NS(C)(=O)=O` [Compound I-178] were, in that order, 1 to 10 µM and under 1 µM.
For `Cc1nc(C2CC2)c(C(F)F)cc1Oc1nc(-c2cncc(C#N)c2)ccc1NS(C)(=O)=O` [Compound I-179], in that order: under 1 µM and under 1 µM.
As to `Cc1cc(N2CC(F)(F)C2)nc(C)c1Oc1nc(-c2cncc(C#N)c2)ccc1NS(C)(=O)=O` [Compound I-180], the EC50 was over 25 µM at ABCD2 WT and under 1 µM on ABCB4 WT.
The like results for `Cc1nc(C2CCC2)nc(C)c1Oc1nc(-c2cncc(C#N)c2)ccc1NS(C)(=O)=O` [Compound I-181] were, in that order, over 25 µM and under 1 µM.
The like results for `Cc1cc(Oc2nc(-c3cncc(C#N)c3)ccc2NS(C)(=O)=O)c(C)nc1C(F)(F)F` [Compound I-182] were, in that order, under 1 µM and under 1 µM.
With `Cc1nc(C2CC2)nc(C)c1Oc1nc(-c2cncc(C#N)c2)ccc1NS(C)(=O)=O` [Compound I-183], the EC50 on ABCD2 WT and at ABCB4 WT was under 1 µM each time.
Turning to `Cc1nc(C2CC2)c(C(F)(F)F)cc1Oc1nc(-c2cncc(C#N)c2)ccc1NS(C)(=O)=O` [Compound I-184], the EC50 at ABCD2 WT and at ABCB4 WT was under 1 µM each time.
`Cc1cc(C)c(Oc2nc(-c3cncc(N4CC(F)C4)c3)ccc2NS(C)(=O)=O)c(C)n1` [Compound I-185]: the 50% effective concentration (EC50) on ABCD2 WT and at ABCB4 WT was under 1 µM each time.
For the compound `Cc1cc(C)c(Oc2nc(-c3ccn(C)c(=O)c3)ccc2NS(C)(=O)=O)c(C)n1` [Compound I-186], the EC50 is over 25 µM on ABCD2 WT and at least 25 µM at ABCB4 WT.
Turning to `Cc1cc(C)c(Oc2nc(-c3cc[nH]c(=O)c3)ccc2NS(C)(=O)=O)c(C)n1` [Compound I-187], the EC50 at ABCD2 WT is over 25 µM; on ABCB4 WT it was at least 25 µM.
For `COc1cc(-c2ccc(NS(C)(=O)=O)c(Oc3c(C)cc(C)nc3C)n2)ccn1` [Compound I-188], in that order: 1 to 10 µM and at least 25 µM.
In the case of `Cc1cc(C)c(Oc2nc(-c3cncc(N4CCC4)c3)ccc2NS(C)(=O)=O)c(C)n1` [Compound I-190], the EC50 on ABCD2 WT and on ABCB4 WT was under 1 µM in each case.
